Measurements as given in publication PMC6964667 (2020).
One block for each molecule: values may come before it.

What was measured:
[1] = system: D1 (DNA, hairpin) CATTGTCAGCCTTTTTGGCTGACAATG; experiment: CD/UV melting at 260 nm; conditions: 10 mM KCl, 10 mM MgCl2, 5 mM CaCl2; sodium dimethyl arsinate pH 6.9, 6% DMSO; 3.3 equiv compound, 8.87 μM DNA
[2] = system: D1 (DNA, hairpin) CATTGTCAGCCTTTTTGGCTGACAATG; experiment: CD titration (ICD); conditions: 10 mM KCl, 10 mM MgCl2, 5 mM CaCl2, 10 μM DNA
[3] = system: D1' (DNA, hairpin) CATTGTTAGCCTTTTTGGCTAACAATG; experiment: CD titration (ICD); conditions: 10 mM KCl, 10 mM MgCl2, 5 mM CaCl2, 10 μM DNA
[4] = system: D1' (DNA, hairpin) CATTGTTAGCCTTTTTGGCTAACAATG; experiment: CD/UV melting at 260 nm; conditions: 10 mM KCl, 10 mM MgCl2, 5 mM CaCl2; sodium dimethyl arsinate pH 6.9, 6% DMSO; 3.3 equiv compound, 8.87 μM DNA
[5] = system: D3 (DNA, hairpin) CATTGTCATGCCTTTTTGGCATGACAATG; experiment: CD titration (ICD); conditions: 10 mM KCl, 10 mM MgCl2, 5 mM CaCl2, 10 μM DNA
[6] = system: D3' (DNA, hairpin) CATTGTTATGCCTTTTTGGCATAACAATG; experiment: CD titration (ICD); conditions: 10 mM KCl, 10 mM MgCl2, 5 mM CaCl2, 10 μM DNA
[7] = system: D2' (DNA, hairpin) CATTGTCAGACTTTTTGTCTGACAATG; experiment: CD titration (ICD); conditions: 10 mM KCl, 10 mM MgCl2, 5 mM CaCl2, 10 μM DNA
[8] = system: D2 (DNA, hairpin) CATTGTTAGACTTTTTGTCTAACAATG; experiment: CD titration (ICD); conditions: 10 mM KCl, 10 mM MgCl2, 5 mM CaCl2, 10 μM DNA
[9] = system: D2 (DNA, hairpin) CATTGTTAGACTTTTTGTCTAACAATG; experiment: CD/UV melting at 260 nm; conditions: 10 mM KCl, 10 mM MgCl2, 5 mM CaCl2; sodium dimethyl arsinate pH 6.9, 6% DMSO; 3.9 equiv compound, 8.87 μM DNA
[10] = system: D2' (DNA, hairpin) CATTGTCAGACTTTTTGTCTGACAATG; experiment: CD/UV melting at 260 nm; conditions: 10 mM KCl, 10 mM MgCl2, 5 mM CaCl2; sodium dimethyl arsinate pH 6.9, 6% DMSO; 3.6 equiv compound, 8.87 μM DNA
[11] = system: D3' (DNA, hairpin) CATTGTTATGCCTTTTTGGCATAACAATG; experiment: CD/UV melting at 260 nm; conditions: 10 mM KCl, 10 mM MgCl2, 5 mM CaCl2; sodium dimethyl arsinate pH 6.9, 6% DMSO; 3.7 equiv compound, 8.87 μM DNA
[12] = system: D3 (DNA, hairpin) CATTGTCATGCCTTTTTGGCATGACAATG; experiment: CD/UV melting at 260 nm; conditions: 10 mM KCl, 10 mM MgCl2, 5 mM CaCl2; sodium dimethyl arsinate pH 6.9, 6% DMSO; 3.3 equiv compound, 8.87 μM DNA
[13] = 10 mM sodium dimethyl arsinate pH 6.9, up to 6% DMSO, 20 °C
[14] = 10 mM sodium dimethyl arsinate pH 6.9, 20 °C, up to 4.8 equiv, no ICD
[15] = 10 mM sodium dimethyl arsinate pH 6.9, up to 6% DMSO, 20 °C, saturation not reached

SMILES: CN(C)CCCNC(=O)CCNC(=O)c1cc(NC(=O)c2cc(NC(=O)c3nc(NC(=O)Cc4cccc(/N=N\c5cccc(CNC(=O)c6cc(NC(=O)c7cc(NC(=O)c8nccn8C)cn7C)cn6C)c5)c4)cn3C)cn2C)cn1C
ΔTm [1]: 3.5 K
KD [2, 13]: 11.8 ± 6.0 µM
KD [3, 13]: 13.2 ± 7.8 µM
ΔTm [4]: 2.1 K

SMILES: CN(C)CCCNC(=O)CCNC(=O)c1cc(NC(=O)c2cc(NC(=O)c3nc(NC(=O)Cc4cccc(/N=N/c5cccc(CNC(=O)c6cc(NC(=O)c7cc(NC(=O)c8nccn8C)cn7C)cn6C)c5)c4)cn3C)cn2C)cn1C
binding [2, 14]: no
binding [3, 14]: no

SMILES: CN(C)CCCNC(=O)CCNC(=O)c1cc(NC(=O)c2cc(NC(=O)c3cc(NC(=O)Cc4cccc(/N=N/c5cccc(CNC(=O)c6cc(NC(=O)c7cc(NC(=O)c8nccn8C)cn7C)cn6C)c5)c4)cn3C)cn2C)cn1C
binding [7, 14]: no
binding [8, 14]: no

Now from value to molecule:

binding [5, 14]: no
binding [6, 14]: no
SMILES: CN(C)CCCNC(=O)CCNC(=O)c1cc(NC(=O)c2cc(NC(=O)c3nc(NC(=O)c4cc(NC(=O)Cc5cccc(/N=N/c6cccc(CNC(=O)c7cc(NC(=O)c8cc(NC(=O)c9cc(NC(=O)c%10nccn%10C)cn9C)cn8C)cn7C)c6)c5)cn4C)cn3C)cn2C)cn1C

ΔTm [9]: 2.0 K
ΔTm [10]: 1.4 K
KD [7, 13]: 42.2 ± 6.3 µM
KD [8, 15]: 52.3 ± 21.0 µM
SMILES: CN(C)CCCNC(=O)CCNC(=O)c1cc(NC(=O)c2cc(NC(=O)c3cc(NC(=O)Cc4cccc(/N=N\c5cccc(CNC(=O)c6cc(NC(=O)c7cc(NC(=O)c8nccn8C)cn7C)cn6C)c5)c4)cn3C)cn2C)cn1C

KD [5, 13]: 21.3 ± 11.2 µM
ΔTm [11]: 0.4 K
ΔTm [12]: 3.5 K
KD [6, 15]: 52.9 ± 29.6 µM
SMILES: CN(C)CCCNC(=O)CCNC(=O)c1cc(NC(=O)c2cc(NC(=O)c3nc(NC(=O)c4cc(NC(=O)Cc5cccc(/N=N\c6cccc(CNC(=O)c7cc(NC(=O)c8cc(NC(=O)c9cc(NC(=O)c%10nccn%10C)cn9C)cn8C)cn7C)c6)c5)cn4C)cn3C)cn2C)cn1C
